{"source": "patent US20030152643A1", "about": "“Combination of an alpha-adrenergic antagonist and a nitrogen oxide donor for treating female sexual dysfunctions” (priority 1998, published 2003)", "origin": "cited, not measured here", "test_system": "erectile dysfunctions", "details": "administration in men; Zorgniotti and Lizza 1994", "data": [{"molecule": "N=C(N)NCCC[C@H](N)C(=O)O", "note": "[L-arginine]", "values": [{"measurement": "effect on erectile dysfunctions in men", "result": "favorable effect on erectile dysfunctions in certain cases"}]}]}
